Patent US20240299321A1, “METHODS TO SENSITIZE CANCER CELLS AND STANDARDIZED SCREENING ASSAY FOR IMMUNOTHERAPY” (THE TRUSTEES OF INDIANA UNIVERSITY, priority 2020, published 2024)

System: EO771 tumors
Assay: CyTOF immune profile of EO771 tumors
Type: in vivo, C57BL/6 mice
Procedure: Animal studies: All animal experiments were performed in accordance with the National Institutes of Health's Animal Use Guidelines and protocols approved by the Animal Care and Use Committee of Indiana University School of Medicine. […] Each mouse was injected with a total of 2×10^5 tumor cells. 5 mice were used in each group. Tumors were measured in two dimensions using a manual caliper. Tumor volume was calculated using the following formula: V=0.5×length×width×width. Tumor volume was measured every 3 days. Tumors were harvested 22 days after injection. The tumor growth, volume and weight were analyzed. To evaluate the anti-tumor effect of drugs in immunocompetent C57BL/6 mice and immunodeficient nude (NU/J) mice, 2×10^5 EO771 cells were orthotopically injected into fat pad of the 4th mammary gland in female mice. […] For CD4/CD8 depletion experiment, the tumor-bearing mice were randomly divided into 7 groups (n=8 mice/group) including isotype control (rat IgG2a, Bioxcell), isotype control+CUDC-101, isotype control+BML-210, anti-CD8 (Clone: 53-6.72, Bioxcell)+CUDC-101, anti-CD8+BML-210, anti-CD4 (Clone: GK1.5, Bioxcell)+CUDC-101, or anti-CD4+BML-210. Intraperitoneal injection of inhibitors (20 mg kg-1) and anti-CD4/CD8 (10 mg kg-1) were administrated to the mice by 3 times/week for 2 weeks. The tumors were harvested at day 18 (NU/J mice) or day 28 (C57BL/6 mice) for further analyses. In immune checkpoint blockade experiment, 2×10^5 EO771 cells were orthotopically injected into fat pad of the 4th mammary gland in female C57BL/6 mice. From day 10, the tumor-bearing mice were randomly divided into each treatment group (n=8 mice/group), and the mice were treated with IgG2a isotype control antibody (clone 2A3, Bioxcell), BML-210 (20 mg kg-1), anti-PD-1 (200 μg/mouse, Bioxcell), or BML-210 and anti-PD-1 combo. The treatment was done 3 times/week for 2 weeks. Tumors were harvested at day 26 post injection and the tumors were analyzed by IHC staining, flow cytometry, ELISA or CyTOF assay. Mass Cytometry (CyTOF): EO771 tumors in C57BL/6 mice were harvested and dissociated into single cells. 1×10^6 single cells from each sample were suspended in ice-cold buffer (PBS with 0.5% BSA and 0.02% Azide). The antibody panel (Table 1) was used for sample staining. Samples were analyzed using the CyTOF 2 Mass Cytometer (Fluidigm). All the samples were done on bead-based normalization before analysis on Cytobank. CyTOF data were analyzed using viSNE analysis64 in the Cytobank platform. The viSNE analysis uses the Barnes-Hut implementation of the t-Distributed Stochastic Neighbor embedding (tSNE) algorithm. The cell populations were visualized on viSNE as an overlay plot.

SMILES: Nc1ccccc1NC(=O)CCCCCCC(=O)Nc1ccccc1 [BML-210]
- infiltration of PMN-MDSCs (CD11b+Ly6G+Ly6ClowF4/80−): decreased infiltration
- Mo-MDSCs (CD11b+Ly6G-Ly6C+F4/80−): increased
- tumor-associated macrophage (TAM M1 and TAM M2) populations (mouse, in vivo): No significant differences
- infiltration of immune lymphocytes, particularly CD8+ T effector cells and NK cells (tumors 26 days post implantation): notably enhanced infiltration
